Source: US12492179B2, “Substituted ethylamine fused heterocyclic mescaline derivatives” (Enveric Biosciences Canada Inc., priority 2022, dated 2025)
pKi: −log10 of the molar value.

How the values were obtained:
[1] = molecular target: T1, D3 receptor (Homo sapiens, UniProt P35462); test: Eurofins Cerep competition binding assay at D3 receptor; conditions: test ligand 10 μM; [3H]methylspiperone […]; recombinant receptor, CHO membranes
T1 construct: host or cells: CHO

[2] = molecular target: T2, 5-HT2A receptor (Homo sapiens, UniProt P28223); test: 5-HT2A receptor radioligand competition assay (SPA, [3H]ketanserin); type: binding; conditions: for pKi: SPA competition, 1 nM [3H]ketanserin, membranes containing 5-HT2A; for 5-HT2A receptor binding, in words (competition curves FIGS. 23B-23H): ligand 3 nM to 1 mM
T2 construct: host or cells: HEK-293
T2 sequence (P28223 whole entry): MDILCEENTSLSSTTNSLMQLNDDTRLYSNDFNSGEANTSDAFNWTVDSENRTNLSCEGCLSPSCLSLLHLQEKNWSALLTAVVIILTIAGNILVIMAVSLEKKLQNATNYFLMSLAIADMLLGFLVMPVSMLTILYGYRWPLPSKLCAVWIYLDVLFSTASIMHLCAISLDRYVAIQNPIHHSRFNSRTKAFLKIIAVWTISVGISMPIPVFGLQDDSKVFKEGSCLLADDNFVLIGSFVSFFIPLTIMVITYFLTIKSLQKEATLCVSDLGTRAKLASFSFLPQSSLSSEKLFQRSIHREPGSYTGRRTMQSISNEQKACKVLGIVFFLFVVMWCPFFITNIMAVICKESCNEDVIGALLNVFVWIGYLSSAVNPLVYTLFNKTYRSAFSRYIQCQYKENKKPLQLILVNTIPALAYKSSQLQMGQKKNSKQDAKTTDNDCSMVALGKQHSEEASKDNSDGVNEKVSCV

[3] = molecular target: T3, 5-HT1A receptor (Homo sapiens, UniProt P08908); test: Eurofins Cerep competition binding assay at 5-HT1A receptor; conditions: test ligand 10 μM; [3H]8-OH-DPAT 0.5 nM; recombinant receptor, HEK-293 membranes
T3 construct: purchased Perkin Elmer 6110501400UA
T3 sequence (P08908 1-422): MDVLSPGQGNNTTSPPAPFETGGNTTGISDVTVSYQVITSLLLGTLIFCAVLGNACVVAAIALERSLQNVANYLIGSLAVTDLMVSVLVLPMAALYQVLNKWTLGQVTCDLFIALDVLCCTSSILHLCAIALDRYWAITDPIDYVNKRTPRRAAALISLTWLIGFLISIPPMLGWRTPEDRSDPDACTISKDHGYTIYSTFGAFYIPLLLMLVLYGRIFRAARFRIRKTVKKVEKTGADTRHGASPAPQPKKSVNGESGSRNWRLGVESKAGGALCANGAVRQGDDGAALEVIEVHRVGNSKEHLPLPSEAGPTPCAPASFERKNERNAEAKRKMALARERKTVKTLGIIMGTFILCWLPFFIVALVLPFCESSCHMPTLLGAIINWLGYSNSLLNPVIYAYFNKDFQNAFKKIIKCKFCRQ

[4] = molecular target: T4, alpha2A receptor (Homo sapiens, UniProt P08913); test: Eurofins Cerep competition binding assay at alpha2A receptor; conditions: test ligand 10 μM; [3H]RX 821002 1 nM; recombinant receptor, CHO membranes; read-out: α-2A, percent of control-specific binding
T4 construct: host or cells: CHO
T4 sequence (P08913 1-465): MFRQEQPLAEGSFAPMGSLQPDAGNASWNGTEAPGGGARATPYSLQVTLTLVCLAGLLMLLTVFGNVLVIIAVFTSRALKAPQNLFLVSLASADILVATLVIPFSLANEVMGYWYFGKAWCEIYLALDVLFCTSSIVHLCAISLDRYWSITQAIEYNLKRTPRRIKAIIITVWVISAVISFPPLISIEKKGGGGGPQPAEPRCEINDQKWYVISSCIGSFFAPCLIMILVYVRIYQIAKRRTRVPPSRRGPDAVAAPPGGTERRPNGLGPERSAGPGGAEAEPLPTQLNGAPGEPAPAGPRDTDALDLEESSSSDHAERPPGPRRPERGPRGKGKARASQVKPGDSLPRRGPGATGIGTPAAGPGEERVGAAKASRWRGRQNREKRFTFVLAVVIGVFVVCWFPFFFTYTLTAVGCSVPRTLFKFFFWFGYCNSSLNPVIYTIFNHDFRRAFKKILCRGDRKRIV

[5] = molecular target: T5, D2 receptor (Homo sapiens, UniProt P14416); test: Eurofins Cerep competition binding assay at D2 receptor; conditions: test ligand 10 μM; [3H]methylspiperone 0.3 nM; recombinant receptor, HEK-293 membranes
T5 construct: host or cells: HEK-293
T5 sequence (P14416 1-414 isoform P14416-2): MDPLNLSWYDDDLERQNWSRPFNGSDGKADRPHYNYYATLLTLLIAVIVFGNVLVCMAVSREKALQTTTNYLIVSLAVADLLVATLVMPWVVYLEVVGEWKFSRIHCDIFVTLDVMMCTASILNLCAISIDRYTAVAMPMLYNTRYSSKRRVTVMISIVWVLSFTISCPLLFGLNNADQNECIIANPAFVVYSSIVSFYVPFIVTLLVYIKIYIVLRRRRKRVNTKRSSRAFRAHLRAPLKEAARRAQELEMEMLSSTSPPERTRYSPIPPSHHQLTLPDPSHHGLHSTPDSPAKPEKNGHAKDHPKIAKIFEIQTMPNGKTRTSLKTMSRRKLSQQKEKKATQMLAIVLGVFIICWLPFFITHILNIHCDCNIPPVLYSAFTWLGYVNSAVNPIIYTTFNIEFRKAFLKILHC

[6] = molecular target: T6, 5-HT2C receptor (Homo sapiens, UniProt P28335); test: Eurofins Cerep competition binding assay at 5-HT2C receptor; conditions: test ligand 10 μM; [125I](±)DOI 0.1 nM; recombinant receptor, HEK-293 membranes
T6 construct: host or cells: HEK-293
T6 sequence (P28335 33-458): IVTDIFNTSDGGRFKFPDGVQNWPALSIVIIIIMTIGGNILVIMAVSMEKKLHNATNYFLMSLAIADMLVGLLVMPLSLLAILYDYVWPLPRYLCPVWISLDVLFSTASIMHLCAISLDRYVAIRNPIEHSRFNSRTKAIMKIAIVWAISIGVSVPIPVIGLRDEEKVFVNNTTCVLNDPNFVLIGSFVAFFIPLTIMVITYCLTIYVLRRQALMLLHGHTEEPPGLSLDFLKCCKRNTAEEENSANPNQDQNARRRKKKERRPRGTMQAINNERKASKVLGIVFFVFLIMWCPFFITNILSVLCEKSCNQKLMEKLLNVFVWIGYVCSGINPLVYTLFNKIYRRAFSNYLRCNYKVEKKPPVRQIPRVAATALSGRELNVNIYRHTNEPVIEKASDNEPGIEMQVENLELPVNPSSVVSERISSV

[7] = molecular target: T7, 5-HT2B receptor (Homo sapiens, UniProt P41595); test: Eurofins Cerep competition binding assay at 5-HT2B receptor; conditions: test ligand 10 μM; [3H]mesulergine 2 nM; recombinant receptor, CHO membranes
T7 construct: host or cells: CHO
T7 sequence (P41595 whole entry): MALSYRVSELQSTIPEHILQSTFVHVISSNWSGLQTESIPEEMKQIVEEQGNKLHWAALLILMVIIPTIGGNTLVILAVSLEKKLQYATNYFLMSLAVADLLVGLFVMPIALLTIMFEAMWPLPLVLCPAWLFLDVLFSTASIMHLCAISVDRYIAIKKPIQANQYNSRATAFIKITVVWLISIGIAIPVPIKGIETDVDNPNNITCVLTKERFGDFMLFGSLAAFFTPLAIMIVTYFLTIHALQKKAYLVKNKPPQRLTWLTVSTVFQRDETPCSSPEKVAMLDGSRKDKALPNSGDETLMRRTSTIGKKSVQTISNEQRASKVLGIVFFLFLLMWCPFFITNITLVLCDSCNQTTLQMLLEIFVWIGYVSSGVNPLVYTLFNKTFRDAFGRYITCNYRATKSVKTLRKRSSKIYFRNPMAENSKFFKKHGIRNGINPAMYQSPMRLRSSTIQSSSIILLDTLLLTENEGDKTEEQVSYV

[8] = molecular target: T8, norepinephrine transporter (NET) (Homo sapiens, UniProt P23975); test: Eurofins Cerep competition binding assay at norepinephrine transporter; conditions: test ligand 10 μM; [3H]nisoxetine 1 nM; recombinant transporter, CHO membranes
T8 construct: host or cells: CHO
T8 sequence (P23975 whole entry): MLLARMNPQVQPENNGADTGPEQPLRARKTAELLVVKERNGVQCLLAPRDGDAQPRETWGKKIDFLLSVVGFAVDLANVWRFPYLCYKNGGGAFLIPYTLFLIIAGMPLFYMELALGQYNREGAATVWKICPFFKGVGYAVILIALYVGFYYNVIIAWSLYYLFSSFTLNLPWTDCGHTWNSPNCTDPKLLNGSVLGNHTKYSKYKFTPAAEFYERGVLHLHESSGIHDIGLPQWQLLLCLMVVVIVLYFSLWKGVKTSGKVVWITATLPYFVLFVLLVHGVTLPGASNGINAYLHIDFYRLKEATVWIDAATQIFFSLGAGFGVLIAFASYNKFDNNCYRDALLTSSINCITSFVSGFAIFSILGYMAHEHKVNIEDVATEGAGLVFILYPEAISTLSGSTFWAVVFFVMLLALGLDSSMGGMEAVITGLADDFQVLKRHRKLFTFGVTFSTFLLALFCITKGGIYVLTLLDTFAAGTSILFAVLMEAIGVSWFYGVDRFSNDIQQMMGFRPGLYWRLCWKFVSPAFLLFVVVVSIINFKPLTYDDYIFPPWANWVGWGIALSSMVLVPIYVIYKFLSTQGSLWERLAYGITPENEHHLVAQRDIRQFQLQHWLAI

[9] = molecular target: T9, dopamine transporter (DAT) (Homo sapiens, UniProt Q01959); test: Eurofins Cerep competition binding assay at dopamine transporter; conditions: test ligand 10 μM; [3H]BTCP 4 nM; recombinant transporter, CHO membranes
T9 construct: host or cells: CHO
T9 sequence (Q01959 whole entry): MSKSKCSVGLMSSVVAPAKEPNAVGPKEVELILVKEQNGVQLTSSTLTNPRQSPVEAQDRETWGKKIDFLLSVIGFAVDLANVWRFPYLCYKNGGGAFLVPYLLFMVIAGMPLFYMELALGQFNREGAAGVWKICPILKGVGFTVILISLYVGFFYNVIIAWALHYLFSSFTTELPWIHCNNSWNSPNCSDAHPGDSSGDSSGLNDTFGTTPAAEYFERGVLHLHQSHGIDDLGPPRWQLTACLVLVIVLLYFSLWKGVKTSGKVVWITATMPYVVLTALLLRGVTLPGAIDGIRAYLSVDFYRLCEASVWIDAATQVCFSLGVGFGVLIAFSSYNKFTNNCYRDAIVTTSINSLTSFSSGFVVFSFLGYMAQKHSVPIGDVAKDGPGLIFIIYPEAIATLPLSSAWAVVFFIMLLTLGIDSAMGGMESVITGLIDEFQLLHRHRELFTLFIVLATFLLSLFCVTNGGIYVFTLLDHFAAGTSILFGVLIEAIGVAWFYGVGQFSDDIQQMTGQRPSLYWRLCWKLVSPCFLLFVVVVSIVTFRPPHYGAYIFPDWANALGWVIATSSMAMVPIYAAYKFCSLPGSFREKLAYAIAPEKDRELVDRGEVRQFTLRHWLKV

[10] = molecular target: T3, 5-HT1A receptor; test: 5-HT1A receptor radioligand competition assay (SPA, 8-hydroxy-DPAT); type: binding; conditions: for 5-HT1A receptor binding, in words (competition curves FIGS. 22B-22L): ligand 3 nM to 1 mM
[11] = molecular target: T10, serotonin transporter (SERT) (Homo sapiens, UniProt P31645); type: binding
T10 construct: host or cells: CHO
T10 sequence (P31645 whole entry): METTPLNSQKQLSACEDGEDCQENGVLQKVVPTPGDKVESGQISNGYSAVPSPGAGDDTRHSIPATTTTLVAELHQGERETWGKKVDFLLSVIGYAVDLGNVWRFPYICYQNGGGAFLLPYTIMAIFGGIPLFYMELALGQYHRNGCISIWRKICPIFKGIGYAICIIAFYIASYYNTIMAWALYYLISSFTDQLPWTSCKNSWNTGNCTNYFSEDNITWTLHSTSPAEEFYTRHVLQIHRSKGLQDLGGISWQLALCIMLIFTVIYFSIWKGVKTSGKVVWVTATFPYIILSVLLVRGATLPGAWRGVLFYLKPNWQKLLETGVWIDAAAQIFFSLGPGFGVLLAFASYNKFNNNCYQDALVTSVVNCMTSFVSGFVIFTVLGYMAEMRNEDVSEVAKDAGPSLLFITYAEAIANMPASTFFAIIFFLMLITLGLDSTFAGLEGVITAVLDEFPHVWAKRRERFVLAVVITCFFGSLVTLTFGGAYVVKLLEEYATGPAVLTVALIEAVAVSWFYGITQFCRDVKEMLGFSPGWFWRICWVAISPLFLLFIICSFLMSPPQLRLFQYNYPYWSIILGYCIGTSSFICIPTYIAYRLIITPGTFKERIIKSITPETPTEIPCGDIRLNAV

[12] = molecular target: T11, MT1 receptor (Homo sapiens, UniProt P48039); test: Eurofins Cerep competition binding assay at MT1 receptor; conditions: test ligand 10 μM; [125I]2-iodomelatonin 0.01 nM; recombinant receptor, CHO membranes
T11 construct: host or cells: CHO
T11 sequence (P48039 whole entry): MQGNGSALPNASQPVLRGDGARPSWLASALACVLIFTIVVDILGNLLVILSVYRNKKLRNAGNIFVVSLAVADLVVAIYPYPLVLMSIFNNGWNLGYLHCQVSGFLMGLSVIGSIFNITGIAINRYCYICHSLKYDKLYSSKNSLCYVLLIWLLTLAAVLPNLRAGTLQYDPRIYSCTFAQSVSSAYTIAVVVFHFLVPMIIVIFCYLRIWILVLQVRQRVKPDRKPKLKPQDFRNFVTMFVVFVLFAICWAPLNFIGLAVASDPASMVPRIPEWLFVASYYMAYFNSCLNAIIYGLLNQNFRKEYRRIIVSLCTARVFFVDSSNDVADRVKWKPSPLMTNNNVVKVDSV

[13] = molecular target: T2, 5-HT2A receptor; type: binding; conditions: test ligand 10 μM; [125I](±)DOI 0.1 nM; recombinant receptor, HEK-293 membranes

T1 sequence (P35462 whole entry): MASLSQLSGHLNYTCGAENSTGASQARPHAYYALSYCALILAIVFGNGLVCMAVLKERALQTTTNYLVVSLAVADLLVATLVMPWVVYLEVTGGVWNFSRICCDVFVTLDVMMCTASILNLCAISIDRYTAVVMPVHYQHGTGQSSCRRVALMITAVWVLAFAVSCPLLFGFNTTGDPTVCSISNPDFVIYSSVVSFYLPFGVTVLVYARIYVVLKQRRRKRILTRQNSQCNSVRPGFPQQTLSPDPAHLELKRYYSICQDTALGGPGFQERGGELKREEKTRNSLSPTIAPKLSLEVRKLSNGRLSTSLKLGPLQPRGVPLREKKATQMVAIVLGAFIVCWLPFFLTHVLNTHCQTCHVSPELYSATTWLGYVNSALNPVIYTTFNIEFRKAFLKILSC

Row | SMILES | D3, percent of control-specific binding [1] [%] | pKi [2] | HT1A, percent of control-specific binding [3] [%] | inhibition at 10 µM [4] [%] | D2, percent of control-specific binding [5] [%] | HT2C, percent of control-specific binding [6] [%] | HT2B, percent of control-specific binding [7] [%] | NET, percent of control-specific binding [8] [%] | DAT, percent of control-specific binding [9] [%] | pKi [10] | SERT, percent of control-specific binding [11] [%] | MT1, percent of control-specific binding [12] [%] | HT2A, percent of control-specific binding [13] [%] | 5-HT2A receptor binding, in words (competition curves FIGS. 23B-23H) [2] | 5-HT1A receptor binding, in words (competition curves FIGS. 22B-22L) [10]
1 | CC(C(=O)N1CCCC1)c1ccc2c(c1)OCO2 (racemic) [Ax(II)] | 0 | 3.23 | 3 | 0 | 0 | 0 | 5 | 0 | 5 | 3.97 | 2 | 5 | 0 |  | 
2 | CC(CN(C)Cc1ccccc1)c1ccc2c(c1)OCO2 (racemic) [Bx(V)] | 19 | 4.20 | 17 | 24 | 12 | 42 | 41 | 47 | 78 | 4.35 | 46 | 9 | 13 | above levels observed for negative control | above levels observed for negative controls
3 | CN(C)CCCN1c2ccccc2CCc2ccccc21 [Imipramine, imipramine, reference compound] |  |  |  |  |  |  |  |  |  |  | 98 |  |  |  | 
4 | CC(CN1CCCC1)c1ccc2c(c1)OCO2 (racemic) [Bx(II)] | 14 |  | 36 | 19 | 6 | 52 | 38 | 9 | 79 | 4.85 | 81 | 0 | 10 |  | 
5 | CCOc1c(OC)cc(CCN)cc1OC [escaline] |  |  |  |  | 5 |  |  |  |  |  |  |  |  |  | binding to 5-HT1A receptor
6 | COc1cc(CCN)c(OC)cc1Br [2C-B, reference compound] |  |  |  |  | 42 |  |  |  |  |  |  |  |  |  | 
7 | CNC(C)Cc1ccc2c(c1)OCO2 (stereo not drawn) [MDMA, reference compound] |  |  |  |  | −10 |  |  |  |  |  |  |  |  |  | 
8 | CCCOc1c(OC)cc(CCN)cc1OC [proscaline, reference compound] |  |  |  |  |  |  |  |  |  |  |  |  |  |  | binding to 5-HT1A receptor
9 | N[C@@H](Cc1c[nH]c2ccccc12)C(=O)O [tryptophan, reference compound] |  |  |  |  |  |  |  |  |  |  |  |  |  | lack of binding at the 5-HT2A receptor | no binding
10 | CN(C)CCc1c[nH]c2cccc(O)c12 [psilocin, reference compound] |  |  |  |  |  |  |  |  |  |  |  |  |  | binding at the 5-HT2A receptor | 
11 | c1cc2c(cc1CC1=NCCO1)OCO2 [C(III)] | 10 |  | 24 | 19 | 0 | 12 | 19 | 0 | 19 | 4.51 | 0 | 12 | 0 |  | 
12 | CC(C(=O)N(C)Cc1ccccc1)c1ccc2c(c1)OCO2 (racemic) [Ax(V)] | 8 | 4.08 | 2 | 0 | 0 | 16 | 30 | 13 | 71 | 3.73 | 0 | 55 | 2 |  | 
13 | COc1cc(CC(C)N)c(OC)cc1Br (stereo not drawn) [DOB, reference compound] |  |  |  |  | 9 |  |  |  |  |  |  |  |  |  | 
